Data as given in US7671040B2, “Chemotherapeutic antineoplastic treatment” (Laboratoires Goemar S.A., priority 2003, dated 2010).
Where “and” joins values, the source holds several entries; their conditions need not be identical. Equal values may be shown once. Read-outs that look alike come from different tables or passages of the source.

Assays:
[1] = test system: cells in bone marrow; settings: for Number of cells, bone marrow, average: average of group; for Number of cells, bone marrow, individual mice: single mice
Experimental: A first group and a second group comprising each 50 mice of the Balb/c type were tested.
On day 0 and then each day after day 0, during 10 days, the total number of cells per ml in bone marrow was determined on several mice of each of both first and second groups.
The number of cells in bone marrow was evaluated as hereafter disclosed. The mice were killed by cervical dislocation, placed on their back on cutting board and soaked with ethanol. A long traverse cut through the skin in the middle of the abdominal area was followed by reflecting the skin from the hindquarters and the hind legs. The legs were separated from the body at the hip joint and the feet were removed. The legs were placed in a Petri dish obtaining RPMI 1640 medium (Sigma). All muscle tissue from the femurs and tibia was removed and the bones were separated (only femurs were used). The epiphyses were cut off on both ends, the bone end was punctured with a 23 G needle and flushed out with 3 ml of warm (22° C.) RPMI 1640 medium. The large debris and cell clumps were removed by layering the cell suspension over 3 ml of heat-inactivated fetal calf serum (FCS; Hyclone, Logan, Utah, USA) for 10 minutes on ice. The cells collected from the top of FCS were washed once by centrifugation at 300×g for 10 minutes at 4° C. and kept in RMPI 1640 medium containing 5% FCS. Five microliters of the cell suspension was mixed with 95 ul of Turk's solution (a mixture of 3 ml concentrated acetic acid, 3 ml of 1% crystal violet in water, Fernandez-Botran and Vetvicka “Methods in Cellular Immunology”, CRC Press, Boca Raton, 1995), and incubated for 5 minutes at room temperature. One drop of this solution has been dropped into a hemocytometer and the cells were counted under an optical microscope.
The result of the counting is expressed in number of cells per femur×10^6.

[2] = test system: cells in peripheral blood; settings: for Number of cells, peripheral blood, average: average of group; for Number of cells, peripheral blood, individual mice: single mice
Source text: The injection was an intraperitoneally injection.
The peripheral blood of the mice of the first and the second groups of mice under experimentation according to a) was used to determine the total number of all cells on day 0 and then on each of the following days until day 10 on several mice selected from each of the first and the second groups.
The number of cells in peripheral blood has been evaluated as hereafter disclosed.

Q: For O=P1(N(CCCl)CCCl)NCCCO1 (stereo not drawn) [cyclophosphamide], which “Number of cells, bone marrow, average” value ([1]; day 1) is on record?
A: The value was 1.25 per femur × 10^6.

Q: What about the “Number of cells, bone marrow, individual mice” value ([1]; day 1 after i.p. injection) of the same molecule?
A: The value was 1 per femur × 10^6 and 1.2 per femur × 10^6 and 1.4 per femur × 10^6 (2×).

Q: What about the “Number of cells, bone marrow, average” value ([1]; day 2) of the same molecule?
A: Its value is 1.25 per femur × 10^6.

Q: And the “Number of cells, bone marrow, individual mice” value ([1]; day 2)?
A: Its value is 0.8 per femur × 10^6 and 2.0 per femur × 10^6 and 2.4 per femur × 10^6.

Q: What about the “Number of cells, bone marrow, average” value ([1]; day 3) of the same molecule?
A: Its value is 3.6 per femur × 10^6.

Q: What about the “Number of cells, bone marrow, average” value ([1]; day 4) of the same molecule?
A: The value was 2.7 per femur × 10^6.

Q: What about the “Number of cells, bone marrow, average” value ([1]; day 5) of the same molecule?
A: Its value is 4.7 per femur × 10^6.

Q: What about the “Number of cells, bone marrow, individual mice” value ([1]; day 5) of the same molecule?
A: Its value is 2.1 per femur × 10^6 and 6.0 per femur × 10^6 and 6.1 per femur × 10^6.

Q: What about the “Number of cells, bone marrow, average” value ([1]; day 6) of the same molecule?
A: Its value is 6.4 per femur × 10^6.

Q: What about the “Number of cells, bone marrow, individual mice” value ([1]; day 6) of the same molecule?
A: Its value is 6.5 per femur × 10^6 and 5.7 per femur × 10^6 and 7.0 per femur × 10^6.

Q: What about the “Number of cells, bone marrow, average” value ([1]; day 7) of the same molecule?
A: The value was 8.1 per femur × 10^6.

Q: And the “Number of cells, bone marrow, individual mice” value ([1]; day 7)?
A: Its value is 9.0 per femur × 10^6 and 8.1 per femur × 10^6 and 7.3 per femur × 10^6.

Q: And the “Number of cells, bone marrow, average” value ([1]; day 8)?
A: Its value is 6.3 per femur × 10^6.

Q: What about the “Number of cells, bone marrow, individual mice” value ([1]; day 8) of the same molecule?
A: Its value is 6.0 per femur × 10^6 and 6.2 per femur × 10^6 and 6.8 per femur × 10^6.

Q: And the “Number of cells, bone marrow, average” value ([1]; day 9)?
A: The value was 8.2 per femur × 10^6.

Q: What about the “Number of cells, bone marrow, individual mice” value ([1]; day 9) of the same molecule?
A: The value was 8.0 per femur × 10^6 and 8.5 per femur × 10^6 and 8.2 per femur × 10^6.

Q: What about the “Number of cells, bone marrow, average” value ([1]; day 10) of the same molecule?
A: Its value is 9.4 per femur × 10^6.

Q: And the “Number of cells, bone marrow, individual mice” value ([1]; day 10)?
A: Its value is 7.2 per femur × 10^6 and 10.8 per femur × 10^6 and 10.3 per femur × 10^6.

Q: And the “Number of cells, peripheral blood, average” value ([2]; day 1)?
A: The value was 3.6 per ml × 10^5.

Q: And the “Number of cells, peripheral blood, average” value ([2]; day 2)?
A: Its value is 3.6 per ml × 10^5.

Q: And the “Number of cells, peripheral blood, individual mice” value ([2]; day 2)?
A: Its value is 6.6 per ml × 10^5 and 6.0 per ml × 10^5 and 6.3 per ml × 10^5.

Q: What about the “Number of cells, peripheral blood, average” value ([2]; day 3) of the same molecule?
A: The value was 4.2 per ml × 10^5.

Q: And the “Number of cells, peripheral blood, individual mice” value ([2]; day 3)?
A: Its value is 3.8 per ml × 10^5 (2×) and 5.1 per ml × 10^5.

Q: What about the “Number of cells, peripheral blood, average” value ([2]; day 4) of the same molecule?
A: The value was 5.1 per ml × 10^5.

Q: What about the “Number of cells, peripheral blood, average” value ([2]; day 5) of the same molecule?
A: Its value is 7.2 per ml × 10^5.

Q: What about the “Number of cells, peripheral blood, individual mice” value ([2]; day 5) of the same molecule?
A: The value was 4.0 per ml × 10^5 and 9.6 per ml × 10^5 and 8.1 per ml × 10^5.

Q: What about the “Number of cells, peripheral blood, average” value ([2]; day 6) of the same molecule?
A: The value was 6.5 per ml × 10^5.

Q: And the “Number of cells, peripheral blood, individual mice” value ([2]; day 6)?
A: Its value is 7.8 per ml × 10^5 and 5.0 per ml × 10^5 and 6.7 per ml × 10^5.

Q: And the “Number of cells, peripheral blood, average” value ([2]; day 7)?
A: The value was 6.4 per ml × 10^5.

Q: What about the “Number of cells, peripheral blood, individual mice” value ([2]; day 7) of the same molecule?
A: Its value is 3.8 per ml × 10^5 and 7.3 per ml × 10^5 and 8.1 per ml × 10^5.

Q: What about the “Number of cells, peripheral blood, average” value ([2]; day 8) of the same molecule?
A: Its value is 7.2 per ml × 10^5.

Q: And the “Number of cells, peripheral blood, individual mice” value ([2]; day 8)?
A: The value was 4.1 per ml × 10^5 and 8.2 per ml × 10^5 and 9.3 per ml × 10^5.

Q: What about the “Number of cells, peripheral blood, average” value ([2]; day 9) of the same molecule?
A: Its value is 11.2 per ml × 10^5.

Q: And the “Number of cells, peripheral blood, individual mice” value ([2]; day 9)?
A: Its value is 8.9 per ml × 10^5 and 11.9 per ml × 10^5 and 12.9 per ml × 10^5.

Q: What about the “Number of cells, peripheral blood, average” value ([2]; day 10) of the same molecule?
A: Its value is 29.2 per ml × 10^5.

Q: What about the “Number of cells, peripheral blood, individual mice” value ([2]; day 10) of the same molecule?
A: The value was 23.8 per ml × 10^5 and 27.8 per ml × 10^5 and 35.9 per ml × 10^5.
